Series [1] relates to MDA-MB-231 human breast cancer cells. The series is described as follows: Wound-healing assay (cell migration). To be noted: MDA-MB-231, wound-healing assay, dose response; read-out: IC50 antimigratory activity. It is filed as cell-based. A digest of the protocol:
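Scratch wounds made in confluent (>95%) monolayers, then compounds added in fresh medium (5 μM in screening; concentration range in follow-up), DMSO as negative control, triplicate. After 24 h serum-starved at 37 °C, cells fixed and Diff-Quick stained. Migrated cells counted per 400× field (≥3 fields); IC50 from concentration range.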

For series [2], the system named is MCF 10A non-tumorigenic mammary epithelial cells. Description: MTT assay of MCF10A cells. It is filed as cell-based, human. The procedure, abridged:
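MCF 10A non-tumorigenic human mammary epithelial cells were seeded at 10×10^4 cells/well and treated with compounds in serum-free medium, final DMSO below 0.1%. Viability was read by MTT, and IC50 came from non-linear regression. Selectivity index = MCF 10A IC50 ÷ +SA cell line IC50.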

The subject of another series is +SA mammary tumor. The series is described as follows: +SA tumor implantation into mammary fat pads of syngeneic BALB/c mice. It is filed as in vivo. From the text: The malignant +SA mammary epithelial cell line was derived from an adenocarcinoma that developed spontaneously in a female BALB/c mouse. These cells can be grown on plastic in culture and display the ability to grow in soft agarose. Re-implantation of +SA mammary tumor cells back into the mammary fat pad of syngeneic mice results in the rapid development and growth of metastatic tumors. Prior to experimentation, +SA cells were serially passaged at subconfluent cell density. For subculturing, cells are rinsed with calcium/magnesium-free phosphate buffered saline (PBS) and incubated in 0.05% trypsin containing 0.025% EDTA in PBS for 5 min at 37° C. […] Cell pellets are then resuspended in control culture media, counted by hemocytometer, and then plated at the desired density in culture plates. […] On the day of tumour implantation, +SA cells grown in culture are isolated with trypsin, washed, counted and diluted to the desired concentration in fresh culture medium. […] Tumor size and body weighs were recorded every other day. Average tumor diameter for each palpable tumor was determined using the mean of the 2 largest perpendicular diameters as measured with vernier calipers. Tumor volume was determined using the equation: Volume=Length (cm)×Width^2 (cm)/2 or V=L×W^2/2 […]

We go through two molecules from US9115145B2, “Tocotrienol derivatives and associated methods” (FIRST TECH INTERNATIONAL LIMITED, priority 2011, dated 2015).

Molecules are shown by their SMILES. Like-named read-outs stand apart in the source and are kept apart here. Some results are limits rather than exact numbers.

Regarding `CC(C)=CCC/C(C)=C/CC/C(C)=C/CC[C@]1(C)CCc2cc(O)c(C)c(C)c2O1` [Compound 1, γ-tocotrienol, reference compound], the IC50 in series [1] was above 40 µM; in series [2] (MCF10A cells, Table II, non-linear regression, read-out: MCF10A (IC50)), 4.4 µM; in series [2] (MCF 10A non-tumorigenic cells, Table I, read-out: IC50 MCF 10A), 4.4 µM.

With `COc1ccc(CCNCc2c(O)c(C)c(C)c3c2CC[C@@](C)(CC/C=C(\C)CC/C=C(\C)CCC=C(C)C)O3)cc1OC` [Compound 30, (R)-5-((3,4-dimethoxyphenethylamino)methyl)-2,7,8-trimethyl-2-((3E,7E)-4,8,12-trimethyltrideca-3,7,11-trienyl)chroman-6-ol], the body weights entry in the series with +SA mammary tumor (0.5 mg/day intravenous, 14-day treatment period) is given as “did not significantly differ”. In addition, the “+SA mammary tumor growth” value in the series with +SA mammary tumor (0.5 mg/day, tail vein injection, 14 day, vs vehicle-treated control) is reported as “grew at a significantly slower rate”.

What is called IC50 is the point on the concentration scale where inhibition reaches its midpoint.
